# Assay results from patent US20110070232A1, “Combination Therapy with an Antitumor Alkaloid” (Pharma Mar, S.A., priority 2008, published 2011).
# pIC50: −log10 of the molar value. Like-named read-outs stand apart in the source and are kept apart here.
# Columns and labels:
# MRI-H-254 tumors = type: in vivo, mice
# Experimental: Female athymic nude mice (Harlan Sprague Dawley, Madison, Wis.) were utilized for all experiments. Animals were housed in ventilated rack caging with food and water ad libitum. The mice were acclimated for at least 5 days prior to tumor implantation with tumor fragments.
# Treatments were initiated on DPI 16.
# (§1) Tumor size measurements were recorded twice weekly from the treatment initiation until the termination of the study.
# (§2) Mean, standard deviation and standard error of the mean were determined for tumor volume for all animal groups at all assessments. Student's t test was performed on tumor volumes at each measurement day, including at the end of the study, to determine whether there were any statistically significant differences between combination treatment groups and single monotherapy treatment groups.
# [1] = test system: HCT-116 (colon cancer) cell line; assay: IC50 determination, MIT (tetrazolium) assay, 72 h (Example 18); type: cell-based, human; conditions: Homo sapiens; HCT-116, 72 hours of drug exposure
# Experimental: HCT-116 cells were grown in McCoy's supplemented with 10% Fetal Bovine Serum (FBS), 1% penicillin/streptomycin and 2 mM L-glutamine.
# (§3) Before plating, cell cultures were trypsinized and cell number estimated using an automated flow cytometer.
# (§4) Cells were harvested and seeded in 96 well microtiter plates at the appropriate cell density (5,000-10,000 cells) in 150 μL of media and incubated for 24 hours to allow the cells to attach before drug addition.
# (§5) After the incubation period (72 hours), 50 μL of MIT solution was added to each microtiter well and incubated for further 8 hours at 37° C. The culture medium was then removed and 50 μl, of DMSO were added to dissolve the MIT crystals. Optical densities were read at 540 nm on spectrophotometer microplate reader.
# (§6) IC50 values were calculated from an average of two to four assays for each of the test agents.
# [2] = test system: BT-474 (breast cancer) cell line; assay: as above; type: cell-based; conditions: Homo sapiens, BT-474, 72 h
# Experimental: BT-474 cells were grown in RPMI supplemented with 1% ITS (insulin, transferrin and selenium), 10% Fetal Bovine Serum (FBS), 1% penicillin/streptomycin and 2 mM L-glutamine.
# as §3, §4, §5, §6
# BxPC-3 tumors = type: in vivo, mice; conditions: mg/kg/day: PM00104 0.90 IV
# Experimental: Female CB17.SCID mice (Charles River Lab.) were utilized for all experiments. Animals were housed in ventilated rack caging with food and water ad libitum. The mice were acclimated for at least 5 days prior to tumor implantation with a tumor cell suspension.
# The tumor model used in these studies was BxPC-3 cell line, which was obtained from the ATCC (Manassas, Va.).
# Treatments were initiated on DPI 9.
# as §1, §2
# [3] = test system: MIA PaCA-2 human pancreatic carcinoma cell line; assay: IC50 determination, MTS assay, 72 h (Example 3); type: cell-based; conditions: 72 hours of drug exposure
# Experimental: (§7) Gemcitabine (Gemzar®) was the agent evaluated in combination with PM00104. The human pancreatic carcinoma cell lines selected for this assay were the following: BxPC-3, PANC-1, MIA PaCA-2, and SW1990 cell lines. BxPC-3 cell line was grown in RPMI 1640 medium supplemented with 10% FBS, 1.5 g/L sodium bicarbonate, 4.5 g/L glucose, 10 mM HEPES, 1 mM sodium pyruvate, and 2 mM L-glutamine. PANC-1 cell line was grown in DMEM supplemented with 10% FBS, 1.5 g/L sodium bicarbonate, 4.5 g/L glucose, and 4 mM L-glutamine. MIA PaCA-2 cell line was grown in DMEM supplemented with 10% FBS, 1.5 g/L sodium bicarbonate, 4.5 g/L glucose, 2.5% Horse Serum, and 2 mM L-glutamine. SW1990 cell line was grown in RPMI 1640 medium supplemented with 10% FBS and 2 mM L-glutamine.
# (§8) a. […] It was used the same methodology as those disclosed in Example 1.
# (§9) IC50 values were calculated from an average of three assays for each of the test agents.
# [4] = test system: BxPC-3 human pancreatic carcinoma cell line; assay: IC50 determination, MTS assay, 72 h (Example 3); type: cell-based; conditions: 72 hours of drug exposure
# Experimental: as §7, §8, §9
# [5] = test system: PANC-1 human pancreatic carcinoma cell line; assay: IC50 determination, MTS assay, 72 h (Example 3); type: cell-based; conditions: 72 hours of drug exposure
# Experimental: as §7, §8, §9
# [6] = test system: SW1990 human pancreatic carcinoma cell line; assay: IC50 determination, MTS assay, 72 h (Example 3); type: cell-based; conditions: 72 hours of drug exposure
# Experimental: as §7, §8, §9
# [7] = day 16, PM00104 0.90, cisplatin 5, irinotecan 18, paclitaxel 25 mg/kg/day
# [8] = day 20, PM00104 0.90, cisplatin 5, irinotecan 18, paclitaxel 25 mg/kg/day
# [9] = day 23, PM00104 0.90, cisplatin 5, irinotecan 18, paclitaxel 25 mg/kg/day
# [10] = day 26, PM00104 0.90, cisplatin 5, irinotecan 18, paclitaxel 25 mg/kg/day
# [11] = day 29, PM00104 0.90, cisplatin 5, irinotecan 18, paclitaxel 25 mg/kg/day
# [12] = day 33, PM00104 0.90, cisplatin 5, irinotecan 18, paclitaxel 25 mg/kg/day
# [13] = day 40, PM00104 0.90, cisplatin 5, irinotecan 18, paclitaxel 25 mg/kg/day
# [14] = day 48, PM00104 0.90, cisplatin 5, irinotecan 18, paclitaxel 25 mg/kg/day
smiles,measurement,setting,value
COc1c(C)cc2c(c1O)[C@@H]1[C@@H]3Cc4c(OC(C)=O)c(C)c5c(c4[C@H](CNC(=O)/C=C/c4cccc(C(F)(F)F)c4)N3[C@@H](O)[C@H](C2)N1C)OCO5 [PM00104],% Inhibition,"MRI-H-254 tumors; day 16, PM00104 0.90, cisplatin 3, irinotecan 10, paclitaxel 12.5 mg/kg/day",2.0%
same,% Inhibition,MRI-H-254 tumors; [7],2.0%
same,% T/C,MRI-H-254 tumors; [7],98.0%
same,% Inhibition,"MRI-H-254 tumors; day 20, PM00104 0.90, cisplatin 3, irinotecan 10, paclitaxel 12.5 mg/kg/day",6.1%
same,% Inhibition,MRI-H-254 tumors; [8],6.1%
same,% T/C,MRI-H-254 tumors; [8],93.9%
same,% Inhibition,"MRI-H-254 tumors; day 23, PM00104 0.90, cisplatin 3, irinotecan 10, paclitaxel 12.5 mg/kg/day",43.9%
same,% Inhibition,MRI-H-254 tumors; [9],43.9%
same,% T/C,MRI-H-254 tumors; [9],56.1%
same,% Inhibition,"MRI-H-254 tumors; day 26, PM00104 0.90, cisplatin 3, irinotecan 10, paclitaxel 12.5 mg/kg/day",59.4%
same,% Inhibition,MRI-H-254 tumors; [10],59.4%
same,% T/C,MRI-H-254 tumors; [10],40.6%
same,% Inhibition,"MRI-H-254 tumors; day 29, PM00104 0.90, cisplatin 3, irinotecan 10, paclitaxel 12.5 mg/kg/day",61.7%
same,% Inhibition,MRI-H-254 tumors; [11],61.7%
same,% T/C,MRI-H-254 tumors; [11],38.3%
same,% Inhibition,"MRI-H-254 tumors; day 33, PM00104 0.90, cisplatin 3, irinotecan 10, paclitaxel 12.5 mg/kg/day",72.0%
same,% Inhibition,MRI-H-254 tumors; [12],72.0%
same,% T/C,MRI-H-254 tumors; [12],28.0%
same,% Inhibition,"MRI-H-254 tumors; day 40, PM00104 0.90, cisplatin 3, irinotecan 10, paclitaxel 12.5 mg/kg/day",81.8%
same,% Inhibition,MRI-H-254 tumors; [13],81.8%
same,% T/C,MRI-H-254 tumors; [13],18.2%
same,% Inhibition,"MRI-H-254 tumors; day 48, PM00104 0.90, cisplatin 3, irinotecan 10, paclitaxel 12.5 mg/kg/day",84.4%
same,% Inhibition,MRI-H-254 tumors; [14],84.4%
same,% T/C,MRI-H-254 tumors; [14],15.6%
same,pIC50,[1],8.05
same,pIC50,[2],9.00
same,% Inhibition,"BxPC-3 tumors; day 9, erlotinib 15 PO",−3.8%
same,% Inhibition,"BxPC-3 tumors; day 9, erlotinib 30 PO",−3.8%
same,% Inhibition,"BxPC-3 tumors; day 9, erlotinib 50 PO",−3.8%
same,% T/C on day,"BxPC-3 tumors; day 9, erlotinib 50 PO",103.8%
same,% Inhibition,"BxPC-3 tumors; day 12, erlotinib 15 PO",10.0%
same,% Inhibition,"BxPC-3 tumors; day 12, erlotinib 30 PO",10.0%
same,% Inhibition,"BxPC-3 tumors; day 12, erlotinib 50 PO",10.0%
same,% T/C on day,"BxPC-3 tumors; day 12, erlotinib 50 PO",90.0%
same,% Inhibition,"BxPC-3 tumors; day 15, erlotinib 15 PO",−20.0%
same,% Inhibition,"BxPC-3 tumors; day 15, erlotinib 30 PO",−20.0%
same,% Inhibition,"BxPC-3 tumors; day 15, erlotinib 50 PO",−20.0%
same,% T/C on day,"BxPC-3 tumors; day 15, erlotinib 50 PO",120.0%
same,% Inhibition,"BxPC-3 tumors; day 19, erlotinib 15 PO",1.4%
same,% Inhibition,"BxPC-3 tumors; day 19, erlotinib 30 PO",1.4%
same,% Inhibition,"BxPC-3 tumors; day 19, erlotinib 50 PO",1.4%
same,% T/C on day,"BxPC-3 tumors; day 19, erlotinib 50 PO",98.6%
same,% Inhibition,"BxPC-3 tumors; day 21, erlotinib 15 PO",30.1%
same,% Inhibition,"BxPC-3 tumors; day 21, erlotinib 30 PO",30.1%
same,% Inhibition,"BxPC-3 tumors; day 21, erlotinib 50 PO",30.1%
same,% T/C on day,"BxPC-3 tumors; day 21, erlotinib 50 PO",69.9%
same,% Inhibition,"BxPC-3 tumors; day 26, erlotinib 15 PO",17.4%
same,% Inhibition,"BxPC-3 tumors; day 26, erlotinib 30 PO",17.4%
same,% Inhibition,"BxPC-3 tumors; day 26, erlotinib 50 PO",17.4%
same,% T/C on day,"BxPC-3 tumors; day 26, erlotinib 50 PO",82.6%
same,% Inhibition,"BxPC-3 tumors; day 29, erlotinib 15 PO",30.6%
same,% Inhibition,"BxPC-3 tumors; day 29, erlotinib 30 PO",30.6%
same,% Inhibition,"BxPC-3 tumors; day 29, erlotinib 50 PO",30.6%
same,% T/C on day,"BxPC-3 tumors; day 29, erlotinib 50 PO",69.4%
same,% Inhibition,"BxPC-3 tumors; day 33, erlotinib 15 PO",17.8%
same,% Inhibition,"BxPC-3 tumors; day 33, erlotinib 30 PO",17.8%
same,% Inhibition,"BxPC-3 tumors; day 33, erlotinib 50 PO",17.8%
same,% T/C on day,"BxPC-3 tumors; day 33, erlotinib 50 PO",82.2%
same,% Inhibition,"BxPC-3 tumors; day 40, erlotinib 15 PO",14.2%
same,% Inhibition,"BxPC-3 tumors; day 40, erlotinib 30 PO",14.2%
same,% Inhibition,"BxPC-3 tumors; day 40, erlotinib 50 PO",14.2%
same,% T/C on day,"BxPC-3 tumors; day 40, erlotinib 50 PO",85.8%
same,IC50,[3],0.093 µg/mL
same,IC50,[4],0.036 µg/mL
same,IC50,[5],0.015 µg/mL
same,IC50,[6],0.0051 µg/mL
